According to ChEMBL document CHEMBL1201862, “PubChem BioAssay data set” (2004):
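Five concentrations, 48 hours, 96-well plates. Abbreviation: GI50, concentration required for 50% inhibition of growth.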 Active and inactive are the calls of the source. No stated cut-off is given here; in the data, active = GI50 up to about 1.1 µM and inactive = higher.

How the values were obtained:
Assay in all cases: inhibition of tumour cell growth, NCI panel, 48 h
[1] = tested on: M14
[2] = tested on: CAKI-1
[3] = tested on: SW-620
[4] = tested on: ACHN
[5] = tested on: LOX IMVI
[6] = tested on: HOP-62
[7] = tested on: IGROV-1
[8] = tested on: NCI-H23
[9] = tested on: HL-60
[10] = tested on: SF-295
[11] = tested on: COLO 205
[12] = tested on: TK-10
[13] = tested on: OVCAR-8
[14] = tested on: HOP-18
[15] = tested on: UACC-257
[16] = tested on: SK-MEL-2
[17] = tested on: NCI-H460
[18] = tested on: DU-145
[19] = tested on: NCI/ADR-RES
[20] = tested on: MCF7

Measured: GI50

O=C1CCCCC1S(=O)(=O)c1ccccc1 (stereo not given)
inactive: [1] > 100 µM | [2] > 100 µM | [3] > 100 µM | [4] > 100 µM | [5] > 100 µM | [6] > 100 µM | [7] > 100 µM | [8] > 100 µM | [9] > 100 µM | [10] > 100 µM | [11] > 100 µM | [12] > 100 µM | [13] > 100 µM | [14] > 100 µM | [15] > 100 µM | [16] > 100 µM | [17] > 100 µM

COc1cccc2c1C1(O)C2CCCCCCCCCC12OCCCO2 (stereo not given)
inactive: [1] > 58.1 µM | [2] > 100 µM | [3] > 46.7 µM | [4] > 35.2 µM | [18] 92.7 µM | [5] 10.5 µM | [6] > 38.3 µM | [7] 41.3 µM | [8] > 58.6 µM | [9] 5.66 µM | [10] 15.1 µM | [11] > 33.8 µM | [12] 49.7 µM | [19] > 100 µM | [20] 19.8 µM | [13] > 41.8 µM | [14] > 100 µM | [15] > 69.2 µM | [16] > 40.5 µM | [17] 6.25 µM

O=C1[C@H]2ON(c3ccccc3)C(c3ccc(Cl)cc3Cl)[C@H]2C(=O)N1c1ccc(Cc2ccc(N3C(=O)[C@@H]4ON(c5ccccc5)C(c5ccc(Cl)cc5Cl)[C@@H]4C3=O)cc2)cc1 (stereo not given in full)
inactive: [1] 19.6 µM | [2] > 100 µM | [3] > 100 µM | [4] > 100 µM | [5] > 100 µM | [6] > 100 µM | [7] > 100 µM | [8] > 100 µM | [9] > 100 µM | [10] > 100 µM | [11] > 100 µM | [12] > 100 µM | [13] > 100 µM | [14] > 100 µM | [15] > 100 µM | [16] > 100 µM | [17] > 100 µM

NC(Cc1ccc2oc3cc(=O)c4ccccc4c-3nc2c1)C(=O)O (stereo not given)
inactive: [1] 12.5 µM | [2] > 79.4 µM | [3] 29.3 µM | [4] 55.7 µM | [18] 15.5 µM | [5] 13.4 µM | [6] 25.9 µM | [7] 68.2 µM | [8] 4.31 µM | [9] 40.8 µM | [10] 22.3 µM | [11] 6.97 µM | [12] 69.7 µM | [19] 47.4 µM | [20] 2.86 µM | [13] 37.4 µM | [14] 25.8 µM | [15] 20.5 µM | [16] 22.6 µM | [17] 11.5 µM

NS(=O)(=O)c1ccc(Nc2c3ccccc3nc3c(C(=O)N4CCN(CCO)CC4)cccc23)cc1
inactive: [1] > 100 µM | [2] > 100 µM | [3] > 100 µM | [4] > 100 µM | [5] 92.7 µM | [6] > 100 µM | [7] > 100 µM | [8] > 100 µM | [9] 29.2 µM | [10] > 100 µM | [11] > 100 µM | [12] > 100 µM | [13] > 100 µM | [14] > 100 µM | [15] > 100 µM | [16] > 100 µM | [17] > 100 µM

C/C(=N\N=C(N)N)c1sc(-c2nc(C)c(/C(C)=N/N=C(N)N)s2)nc1C
inactive: [1] > 100 µM | [2] > 100 µM | [3] > 100 µM | [4] > 100 µM | [5] > 42.5 µM | [6] > 100 µM | [7] > 100 µM | [8] > 100 µM | [9] 24.4 µM | [10] > 100 µM | [11] > 52.5 µM | [12] > 100 µM | [13] > 100 µM | [14] > 100 µM | [15] > 100 µM | [16] > 100 µM | [17] > 62.5 µM

COc1cc2c(cc1OC)[C@H]1C(COC(=O)Nc3ccccc3)CN1CC2 (stereo not given in full)
inactive: [1] 53.8 µM | [2] > 100 µM | [3] > 100 µM | [4] > 100 µM | [5] 57.9 µM | [6] > 100 µM | [7] > 100 µM | [8] > 100 µM | [9] > 100 µM | [10] > 100 µM | [11] > 100 µM | [12] > 100 µM | [13] > 100 µM | [14] > 100 µM | [16] > 100 µM | [17] > 100 µM

CCCCCCCCCCCCCCCCOCC(CN(C)CCN(C)C)OCCCCCCCCCCCCCCCC (stereo not given)
inactive: [1] > 100 µM | [2] > 100 µM | [3] > 100 µM | [4] > 100 µM | [5] > 100 µM | [6] > 100 µM | [7] > 100 µM | [8] > 100 µM | [9] > 100 µM | [10] > 100 µM | [11] > 100 µM | [12] > 100 µM | [13] > 100 µM | [14] > 100 µM | [15] > 100 µM | [16] > 100 µM | [17] > 100 µM

Clc1ccc(-n2nnc(C3=NCCN3)c2-c2ccccc2)cc1
inactive: [1] > 100 µM | [2] > 100 µM | [3] > 100 µM | [4] > 100 µM | [5] > 100 µM | [6] > 100 µM | [7] > 100 µM | [8] > 100 µM | [9] > 100 µM | [10] > 100 µM | [11] > 100 µM | [12] 66.8 µM | [13] > 100 µM | [14] > 100 µM | [15] > 100 µM | [16] > 100 µM | [17] > 100 µM

C=C(C)C1Cc2c(cc(OC)c3c(=O)c4ccccc4n(C)c23)O1 (stereo not given)
inactive: [1] > 100 µM | [2] > 100 µM | [3] > 100 µM | [4] 58.3 µM | [5] 47.3 µM | [6] > 100 µM | [7] > 100 µM | [8] > 100 µM | [9] > 100 µM | [10] > 100 µM | [11] > 100 µM | [12] > 100 µM | [13] > 100 µM | [14] > 100 µM | [15] > 100 µM | [16] > 100 µM | [17] > 100 µM

O=C(/C=C/c1ccc(O)cc1)c1ccc(O)cc1 [4,4'-DIHYDROXYCHALCONE]
inactive: [1] 18.8 µM | [2] 18.1 µM | [3] 26.1 µM | [4] 23.9 µM | [18] 34.2 µM | [5] 11.4 µM | [6] 21.8 µM | [7] 32.1 µM | [8] 25.5 µM | [9] 17 µM | [10] 31.8 µM | [11] 30.4 µM | [12] 46.9 µM | [19] 21.6 µM | [20] 32.9 µM | [13] 16.7 µM | [14] 35.2 µM | [15] 29.5 µM | [16] 19.6 µM | [17] 26.8 µM
